Data: patent US20110190503A1, “Thiazolopyridin-2-yloxy-phenyl and thiazolopyrazin-2-yloxy-phenyl amines as modulators of leukotriene A4 hydrolase” (Janssen Pharmaceutical NV, priority 2008, published 2011)

What was measured:
[1] = molecular target: T1, recombinant human LTA4 hydrolase (rhLTA4H) (Homo sapiens, UniProt P09960); assay: Recombinant human LTA4 hydrolase assay for LTA4 hydrolase inhibitor activity; assay type: biochemical; settings: rhLTA4H, LTA4 substrate, LTB4 by immunoassay; single determination or average; read-out: IC50
T1 construct: made in house; host or cells: Spodoptera frugiperda (Sf-9) cells, recombinant baculovirus (pFastBac1)
T1 sequence (P09960 1-611): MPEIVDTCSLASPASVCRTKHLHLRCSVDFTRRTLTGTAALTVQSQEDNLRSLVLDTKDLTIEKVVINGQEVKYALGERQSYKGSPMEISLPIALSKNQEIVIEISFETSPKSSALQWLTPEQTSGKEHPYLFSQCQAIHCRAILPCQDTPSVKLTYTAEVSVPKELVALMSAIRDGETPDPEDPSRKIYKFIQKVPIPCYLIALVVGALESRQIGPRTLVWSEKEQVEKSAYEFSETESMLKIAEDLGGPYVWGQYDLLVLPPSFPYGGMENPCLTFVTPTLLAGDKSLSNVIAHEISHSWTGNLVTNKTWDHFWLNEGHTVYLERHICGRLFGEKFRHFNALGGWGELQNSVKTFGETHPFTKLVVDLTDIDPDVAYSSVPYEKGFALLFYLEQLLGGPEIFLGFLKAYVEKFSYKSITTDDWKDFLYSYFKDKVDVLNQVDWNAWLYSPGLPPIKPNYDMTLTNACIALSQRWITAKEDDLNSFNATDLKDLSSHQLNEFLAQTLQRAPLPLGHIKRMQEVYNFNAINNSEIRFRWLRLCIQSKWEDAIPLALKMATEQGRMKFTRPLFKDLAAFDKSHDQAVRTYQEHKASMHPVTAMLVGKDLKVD
How it was run: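 LTB4 formed from LTA4 substrate (free acid from the methyl ester) was quantified by enzyme immunoassay after a 30 min rt reaction. Enzyme was 10 ng Sf-9-expressed human LTA4 hydrolase, pre-incubated 10 min with compound.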

[2] = system: neutrophil influx; assay: Murine arachidonic acid-induced inflammation model: neutrophil influx in ear, myeloperoxidase activity (% Inh. MPO); assay type: in vivo; settings: Mus musculus, female Balb/c mice, 30 mg/kg oral gavage, ear biopsy 3 h after topical arachidonic acid, number of determinations in parentheses
Description: (§1) Assay 4: Murine Arachidonic Acid-Induced Inflammation Model
(§2) LTA4H inhibitor compounds of the present invention were dissolved in 20% cyclodextran/H2O at a concentration of 3 mg/mL. The solutions were administered by oral gavage to female Balb/c mice weighing approximately 20 grams each (0.2 mL per mouse, 30 mg of LTA4H inhibitor compound per kg). Sixty minutes after being administered an LTA4 inhibitor, each mouse received topical application of 20 μL of arachidonic acid (100 mg/mL in acetone) to the left ear and 20 μL of acetone only to the right ear. After 3 h, the mice were sacrificed, blood was withdrawn in heparinized syringes, and 8 mm ear biopsies were taken. Ear biopsies were weighed to determine edema and then frozen at −80° C. until needed for determination of neutrophil influx.
Neutrophil influx was quantified by measuring the activity of myeloperoxidase (MPO), a neutrophil-specific enzyme. The ear biopsies were homogenized in 0.5 mL extraction buffer (0.3 M sucrose, 0.22% (w/v) hexadecyl trimethyl ammonium bromide (CTAB), and 2.5 mM citrate prepared from 0.5 M citrate stock solution (pH 5.0)), in a Fast-Prep-24 (MP™) (40 seconds at 6 mps). Debris was removed by centrifugation at 14000×g for 10 min. Aliquots of 10 μL of the resulting supernatant were added to wells of a microtiter plate, along with 90-μL aliquots of dilution buffer (10 mM citrate, 0.22% CTAB), followed by addition of 20 μL TMB liquid substrate system (Sigma Chemical Co.) to each sample well. The microtiter plate contents were held at room temperature until the sample with the highest concentration of MPO reached an absorbance value of 0.4 at 650 nm. The reaction was stopped by addition of 50 μL 1 M H2SO4 to each sample well, and the myeloperoxidase activity in each sample was determined from the absorbance at 405 nm. The background value from the right ear, treated only with acetone, was subtracted from that for the left ear, treated with arachidonic acid in acetone, for each animal. The percent inhibition of neutrophil influx (% Inh. MPO) by compounds of the invention was determined by comparison to animals treated identically, except that the solution administered by oral gavage was devoid of inhibitor compound.
(§3) The number of determinations is indicated in parentheses following each value

[3] = system: ex vivo stimulated LTB4 production; assay: Murine arachidonic acid-induced inflammation model: ex vivo stimulated LTB4 production (% Inh. LTB4); settings: Mus musculus; female Balb/c mice, 30 mg/kg oral gavage; blood taken 3 h after arachidonic acid, ex vivo A23187 stimulation; number of determinations in parentheses
Description: as §1, §2
One hundred-microliter aliquots of heparinized blood were added to wells of a microtiter plate, along with equal volumes of RPMI-1640 medium, and calcium ionophore A23187 was added to each sample well (final concentration=[…]). The microtiter plate contents were incubated for 30 min at 37° C. in a humidified incubator. The reaction was terminated by centrifugation (833×g, 10 min at 4° C.). Supernatants were analyzed for LTB4 by a commercially available enzyme-linked immunoassay (Cayman Chemical Co.) in accordance with the manufacturer's instructions. The percent inhibition of ex vivo stimulated LTB4 production (% Inh. LTB4) was determined by comparison to animals treated identically except that the solution administered by oral gavage was devoid of inhibitor compound.
as §3

[4] = system: LTB4 production by calcium ionophore-stimulated murine blood; assay: LTB4 production by calcium ionophore-stimulated murine blood for LTA4H inhibitor activity; assay type: cell-based, CD-1 mice; settings: Mus musculus; murine blood diluted 1 in 15, calcium ionophore A23187, LTB4 by immunoassay; read-out: IC50
How it was run: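 LTB4 quantified by EIA in supernatants after murine (CD-1) heparinized whole blood was exposed to compound for 15 min, then to 7 μg/mL (final) A23187 for 30 min, all at 37° C. Reported values: single runs or means; three or more runs include SD.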

Compound | IC50 [1] [nM] | IC50 [4] [nM] | inhibition in vivo at 30 mg/kg [2] [%] | inhibition at 30 mg/kg [3] [%]
CCN(CC)Cc1ccc(Oc2nc3ncccc3s2)cc1 [Example 111, N-Ethyl-N-[4-([1,3]thiazolo[4,5-b]pyridin-2-yloxy)benzyl]ethanamine] | 6.6 | 30 | 66.9 | 56.8
OC1(c2ccccc2)CCN(CCOc2ccc(Oc3nc4ncccc4s3)cc2)CC1 [Example 27, 4-Phenyl-1-{2-[4-([1,3]thiazolo[4,5-b]pyridin-2-yloxy)phenoxy]ethyl}piperidin-4-ol] | 32 | 160 | 83.7 | 78.2
CC(=O)N[C@H]1C[C@H]2CC[C@@H](C1)N2Cc1ccc(Oc2nc3ncc(Cl)cc3s2)cc1 [Example 287, meso-endo-N-[8-{4-[(6-Chloro[1,3]thiazolo[4,5-b]pyridin-2-yl)oxy]benzyl}-8-azabicyclo[3.2.1]oct-3-yl]acetamide] | 3 | 110 | 86.7 | 89.8
CC(=O)N[C@H]1C[C@H]2CC[C@@H](C1)N2CCOc1ccc(Oc2nc3ncccc3s2)cc1 [Example 16, meso-N-[(3-endo)-8-{2-[4-([1,3]Thiazolo[4,5-b]pyridin-2-yloxy)phenoxy]ethyl}-8-azabicyclo[3.2.1]oct-3-yl]acetamide] | 3 | 26 | 73.6 | 84.6
CC(=O)N[C@@H]1C[C@H]2CC[C@@H](C1)N2CCc1ccc(Oc2nc3ncccc3s2)cc1 [Example 49, meso-N-[(3-exo)-8-{2-[4-([1,3]Thiazolo[4,5-b]pyridin-2-yloxy)phenyl]ethyl}-8-azabicyclo[3.2.1]oct-3-yl]acetamide] | 0.7 | 76 | 66 | 83
NC(=O)N1C[C@H]2CC[C@@H](C1)N2CCc1ccc(Oc2nc3ncccc3s2)cc1 [Example 54, meso-8-{2-[4-([1,3]Thiazolo[4,5-b]pyridin-2-yloxy)phenyl]ethyl}-3,8-diazabicyclo[3.2.1]octane-3-carboxamide] | 9.6 | 75 ± 71 | 87.7 | 81.2
CC(=O)N1CC2CN(CCOc3ccc(Oc4nc5ncccc5s4)cc3)CC2C1 (stereo not drawn) [Example 18, 2-{4-[2-(5-Acetylhexahydropyrrolo[3,4-c]pyrrol-2(1H)-yl)ethoxy]phenoxy}[1,3]thiazolo[4,5-b]pyridine] | 5.5 | 32 ± 24 | 86.1 | 80.9
c1cnc2nc(Oc3ccc(CCN4CCOCC4)cc3)sc2c1 [Example 59, 2-[4-(2-Morpholin-4-ylethyl)phenoxy][1,3]thiazolo[4,5-b]pyridine] | 9 | 19 | 89.9 | 92.7

Continued by falling IC50 [1], values first:

IC50 [1] [nM] | IC50 [4] [nM] | Compound | inhibition in vivo at 30 mg/kg [2] [%] | inhibition at 30 mg/kg [3] [%]
29 ± 5.2 | 310 | NC(=O)N1C[C@@H]2C[C@H]1CN2CCOc1ccc(Oc2nc3ncccc3s2)cc1 [Example 15, (1S,4S)-5-{2-[4-([1,3]Thiazolo[4,5-b]pyridin-2-yloxy)phenoxy]ethyl}-2,5-diazabicyclo[2.2.1]heptane-2-carboxamide] | 47.7 | 61.9
13 | 130 | O=C1CCCN1C1CCN(CCc2ccc(Oc3nc4ncccc4s3)cc2)CC1 [Example 46, 1-(1-{2-[4-([1,3]Thiazolo[4,5-b]pyridin-2-yloxy)phenyl]ethyl}piperidin-4-yl)pyrrolidin-2-one] | 75.3 | 86.5
12 | 60 | c1cnc2nc(Oc3ccc(CN4CCOCC4)cc3)sc2c1 [Example 86, 2-[4-(Morpholin-4-ylmethyl)phenoxy][1,3]thiazolo[4,5-b]pyridine] | 51.5 | 70.8
10 | 120 | O=C1C[C@@H](O)CN1C1CCN(CCOc2ccc(Oc3nc4ncccc4s3)cc2)CC1 [Example 270, (4R)-4-Hydroxy-1-(1-{2-[4-([1,3]thiazolo[4,5-b]pyridin-2-yloxy)phenoxy]ethyl}piperidin-4-yl)pyrrolidin-2-one] | 60.6 | 75.9
6 | 5 | CC(=O)N1C[C@@H]2CC[C@H]1CN2Cc1ccc(Oc2nc3ncccc3s2)cc1 [Example 290, 2-(4-{[(1S,4S)-5-Acetyl-2,5-diazabicyclo[2.2.2]oct-2-yl]methyl}phenoxy)[1,3]thiazolo[4,5-b]pyridine] | 86.9 | 82.9
6 | 20 | CC(=O)N1C[C@H]2C[C@@H]1CN2CCc1ccc(Oc2nc3ncccc3s2)cc1 [Example 79, 2-(4-{2-[(1R,4R)-5-Acetyl-2,5-diazabicyclo[2.2.1]hept-2-yl]ethyl}phenoxy)[1,3]thiazolo[4,5-b]pyridine] | 82.2 | 86.7
5 | 19 | c1cnc2nc(Oc3ccc(OCCN4CCCCC4)cc3)sc2c1 [Example 10, 2-[4-(2-Piperidin-1-ylethoxy)phenoxy][1,3]thiazolo[4,5-b]pyridine] | 62.2 | 68
3 | 77 | O=C1C[C@@H](O)CN1C1CCN(Cc2ccc(Oc3nc4ncccc4s3)cc2)CC1 [Example 269, (4R)-4-Hydroxy-1-{1-[4-([1,3]thiazolo[4,5-b]pyridin-2-yloxy)benzyl]piperidin-4-yl}pyrrolidin-2-one] | 90.6 | 84.4
2.9 | 37 | c1cnc2nc(Oc3ccc(CN4CCCCC4)cc3)sc2c1 [Example 85, 2-[4-(Piperidin-1-ylmethyl)phenoxy][1,3]thiazolo[4,5-b]pyridine] | 48.4 | 66.8
2 | 80 | NC(=O)N1C[C@H]2C[C@@H]1CN2CCc1ccc(Oc2nc3ncccc3s2)cc1 [Example 80, (1R,4R)-5-{2-[4-([1,3]Thiazolo[4,5-b]pyridin-2-yloxy)phenyl]ethyl}-2,5-diazabicyclo[2.2.1]heptane-2-carboxamide] | 37 | 72.1
